From patent US8354429B2, “Inhibitors of human immunodeficiency virus replication” (priority 2007, dated 2013) come the findings set out here.

Format in all cases: cell-based
Test [1] relates to HIV-1 2.12 virus with Thr124/Ala125 variant integrase. Nature of the test: C8166 HIV-1 luciferase assay (EC50), T124/A125 integrase variant virus. Conditions: Human immunodeficiency virus 1, C8166, read-out: EC50 (nM) T124/A125. An excerpt: (§1) C8166 cells are derived from a human T-lymphotrophic virus type 1 immortalized but nonexpressing line of cord blood lymphocytes (NIH AIDS reagent 404) and are highly permissive to HIV-1 infection. The pGL3 Basic LTR/TAR plasmid is made by introducing the HIV-1 HxB2 LTR sequence from nucleotide −138 to +80 (Sca1-HindIII) upstream of the luciferase gene in the pGL3 Basic Vector (a promoterless luciferase expression vector from Promega catalogue #E1751) with the gene for blasticidine resistance cloned in. The reporter cells are made by electroporating C8166 cells with pGL3 Basic LTR/TAR and selecting positive clones with blasticidine. Clone C8166-LTRluc #A8-F5-G7 was selected by 3 consecutive rounds of limiting dilution under blasticidine selection. Cultures are maintained in complete media (consisting of: Roswell Park Memorial Institute medium (RPMI) 1640+10% FBS+10^−5 M β-mercaptoethanol+10 μg/mL gentamycin) with 5 μg/mL blasticidine, however, blasticidine selection is removed from the cells before performing the viral replication assay.
(§2) Serial dilutions of HIV-1 inhibitor compounds are prepared in complete media from 10 mM DMSO stock solutions. Eleven serial dilutions of 2.5× are made at 8× desired final concentration in a 1 ml deep well titer plate (96 wells). The 12th well contains complete media with no inhibitor and serves as the positive control. All samples contain the same concentration of DMSO 0.1% DMSO). A 25 μL aliquot of inhibitor is added, to triplicate wells, of a 96 well tissue culture treated clear view black microtiter plate (Corning Costar catalogue #3904). The total volume per well is 200 μL of media containing cells and inhibitor. The last row is reserved for uninfected C8166 LTRluc cells to serve as the background blank control and the first row is media alone.
(§3) C8166 LTRluc cells are counted and placed in a minimal volume of complete RPMI 1640 in a tissue culture flask (ex. 30×10^6 cells in 10 mL media/25 cm^2 flask). Cells are infected with HIV-1 or virus with variant integrase generated as described below at a […] (moi) of 0.005. Cells are incubated for 1.5 h at 37° C. on a rotating rack in a 5% CO2 incubator and re-suspended in complete RPMI to give a final concentration of 25,000-cells/175 μL. 175 μL of cell mix is added to wells of a 96 well microtiter plate containing 25 μL 8× inhibitors. 25,000 uninfected C8166-LTRluc cells/well in 200 μL complete RPMI are added to the last row for background control. Cells are incubated at 37° C. in 5% CO2 incubator for 3 days.
(§4) 50 μL Steady Glo (luciferase substrate T1/2=5 hours Promega catalogue #E2520) is added to each well of the 96 well plate. The relative light units (RLU) of luciferase is determined using the LUMIstar Galaxy luminometer (BMG LabTechnologies). Plates are read from the bottom for 2 seconds per well with a gain of 240.
(§5) The level of inhibition (% inhibition) of each well containing inhibitor is calculated as follows: […]
(§6) The calculated % inhibition values are used to determine EC50, slope factor (n) and maximum inhibition (Imax) by the non-linear regression routine NLIN procedure of SAS using the following equation: […]
(§7) The 2.12 virus with NL4.3 strain of HIV-1 integrase (SEQ ID NO: 1) is used for the Thr124/Thr125 variant integrase residues and HXB2 integrase is introduced into the 2.12 virus for the Ala124/Thr125 variant integrase residues. The remaining variants viruses are generated by site directed mutagenesis of NL4.3 integrase to introduce the Ala124/Ala125, Thr124/Ala125, Asn124/Thr125, or Asn124/Ala125 variants in the 2.12 virus. Molecular biology and generation of virus are performed in a similar manner to Doyon et al. J. Virol. 70(6):3763-9 (1996). Briefly, site directed mutagenesis is used to introduce silent mutations in the integrase gene of the 2.12 virus. […]

Test [2] relates to HIV-1 2.12 virus with Ala124/Thr125 variant integrase (HXB2 integrase). The experiment in a line: C8166 HIV-1 luciferase assay (EC50), A124/T125 integrase variant virus. To be noted: Human immunodeficiency virus 1, HXB2, C8166, read-out: EC50 (nM) A124/T125.
Excerpt: as §1, §2, §3, §4, §5, §6, §7

For test [3], the system named is HIV-1 2.12 virus with Ala124/Ala125 variant integrase. Nature of the test: C8166 HIV-1 luciferase assay (EC50), A124/A125 integrase variant virus. Conditions: Human immunodeficiency virus 1, C8166, read-out: EC50 (nM) A124/A125.
Excerpt: as §1, §2, §3, §4, §5, §6, §7

In test [4] the test system is HIV-1 2.12 virus with Thr124/Thr125 variant integrase (NL4.3 integrase). Nature of the test: C8166 HIV-1 luciferase assay (EC50), T124/T125 integrase variant virus. To be noted: Human immunodeficiency virus 1, C8166, read-out: EC50 (nM) T124/T125.
Excerpt: as §1, §2, §3, §4, §5, §6, §7

In the case of `Cc1ccc(-c2c([C@H](OC(C)(C)C)C(=O)O)c(C)nc3ccccc23)cc1C` [Compound 1008], the EC50 in test [1] was 49 nM; in test [2], 11 nM; in test [3] it was 55 nM; in test [4] it was 59 nM.

For the molecule `CCC(C)(C)Oc1c(C(C(=O)O)c2ccc3c4c(ccnc24)CCO3)c(C)nc2ccccc12` (stereo not drawn) [Compound 2002], the EC50 in test [1] is 24 nM; in test [2], 9.9 nM; in test [3] it was 13 nM; in test [4] it was 19 nM.

As for `Cc1nc2ccccc2c(OC(C)C)c1C(C(=O)O)c1ccc2c3c(ccnc13)CCO2` (stereo not drawn) [Compound 2001], the EC50 in test [1] turned out to be 120 nM; in test [2], 71 nM; in test [3], 67 nM; in test [4], 110 nM.

On to `Cc1nc2ccccc2c(-c2ccc3ncsc3c2)c1[C@H](OC(C)(C)C)C(=O)O` [Compound 1136], for which the EC50 in test [1] came to 140 nM; in test [2], 91 nM; in test [3], 170 nM; in test [4], 200 nM.

`Cc1nc2ccccc2c(-c2ccc(Cl)cc2F)c1[C@H](OC(C)(C)C)C(=O)O` [Compound 1010]: the EC50 came out at 76 nM in test [1], 12 nM in test [2], 49 nM in test [3] and 41 nM in test [4].

Regarding `Cc1nc2ccccc2c(-c2ccc3c(c2)CCO3)c1[C@H](OC(C)(C)C)C(=O)O` [Compound 1014], the EC50 in test [1] worked out at 76 nM; in test [2], 19 nM; in test [3], 68 nM; in test [4], 87 nM.

Regarding `Cc1nc2ccccc2c(-c2ccc3c(c2)CCC3)c1[C@H](OC(C)(C)C)C(=O)O` [Compound 1023], the EC50 worked out at 31 nM in test [1], 12 nM in test [2], 37 nM in test [3] and 29 nM in test [4].

For the molecule `Cc1nc2ccccc2c(-c2ccc3c(c2)C(C)CCO3)c1[C@H](OC(C)(C)C)C(=O)O` (stereo partly drawn) [Compound 1052], the EC50 came to 59 nM in test [1], 28 nM in test [2], 64 nM in test [3] and 120 nM in test [4].

In the case of `Cc1nc2ccccc2c(-c2ccc(CF)cc2F)c1[C@H](OC(C)(C)C)C(=O)O` [Compound 1018], the EC50 in test [1] was determined as 93 nM; in test [2], 35 nM; in test [3] it was 110 nM; in test [4], 55 nM.
